Experiments:
[1] = test system: cisplatin-resistant murine L1210 leukemia cell (L1210/DDP); assay: Antitumor effect on cisplatin-resistant murine L1210 leukemia cell (L1210/DDP), increase in life-span; format: in vivo, murine; male CDF1 mice; conditions: for ILS50 (a dose which shows 50% of the ILS value by 5 administrations): ND: not detectable; for TI (therapeutic index LD50/ILS50): LD50/ILS50, ND: not detectable; for ILSmax (maximum ILS value within the set doses): male CDF1 mice, observed for 30 days; for dose corresponding to ILSmax: dose(s) shown in parenthesis
From the text: (§1) Murine L1210 leukemia cells (1×10^5 cells) were inoculated peritoneally into six-week-old male CDF1 mice.
(§2) T: mean survival days of drug-treated group
(§3) C: mean survival days of untreated group
(§4) In the table, ILSmax means the maximum ILS value (%) within the set doses, and its corresponding dose (mg/kg) is shown in parenthesis.
Antitumor effect on cisplatin-resistant murine L1210 leukemia cell:
The above test of the antitumor effect on murine leukemia cells was repeated except that cisplatin-resistant murine L1210 leukemia cell (L1210/DDP) was used instead of murine L1210 leukemia cell, with the results shown in Table 2.

male CDF1 mice = assay: 50% lethal dose by single intraperitoneal administration; format: in vivo
From the text: as §4

[2] = test system: murine L1210 leukemia cells; assay: Antitumor effect on murine L1210 leukemia cell (intraperitoneally inoculated mice, increase in life-span); format: in vivo, murine; male CDF1 mice; conditions: for ILS50 (a dose which shows 50% of the ILS value by 5 administrations): from linear regression line; for dose corresponding to ILSmax: dose shown in parenthesis; for ILSmax (maximum ILS value within the set doses): male CDF1 mice, observed for 30 days
From the text: as §1, §2, §3, §4

Molecule | ILS50 (a dose which shows 50% of the ILS value by 5 administrations) [1] [mg/kg] | TI (therapeutic index LD50/ILS50) [1] | ILSmax (maximum ILS value within the set doses) [1] [%] | LD50 (male CDF1 mice) [mg/kg] | ILS50 (a dose which shows 50% of the ILS value by 5 administrations) [2] [mg/kg] | TI (therapeutic index LD50/ILS50) [2] | dose corresponding to ILSmax [2] [mg/kg] | ILSmax (maximum ILS value within the set doses) [2] [%] | dose corresponding to ILSmax [1]
chloro(propionato)(trans-1-1,2-diaminocyclohexane)platinum(II) [Compound 14] | < 1.0 | > 44.3 | > 194.1 | 44.3 | 1.0 | 44.3 | 8 | 146.3 | 
chloro(1-lactato)(trans-1-1,2-diaminocyclohexane)platinum(II) [Compound 17] | < 1.0 | > 44.3 | > 194.1 | 44.3 | < 1.0 | > 44.3 | 8 | > 190.0 | 1,2 mg/kg
chloro (cyclopropanecarboxylato) (trans-1-1,2-diaminocyclohexane)platinum(II) [Compound 15] | < 1.0 | > 31.3 | > 194.1 | 31.3 | 1.2 | 26.1 | 8 | > 166.3 | 1,2 mg/kg
O=C([O][Pt]1([Cl])[NH]C2CCCCC2[NH]1)C1CCCC1 (stereo not drawn) [Compound 16, chloro(cyclopentanecarboxylato)(trans-1-1,2-diaminocyclohexane)platinum(II)] | < 4.0 | > 44.2 | > 194.1 | 176.8 | 5.6 | 31.6 | 32 | > 221.3 | 4,8 mg/kg
N.N.[Cl][Pt][Cl] [Cisplatin, cisplatin, reference compound] |  |  | 1.0 |  | 1.3 |  | 4 | 97.5 | 4 mg/kg
